The text below walks through data of ChEMBL document CHEMBL5050861 (2021).

As a reminder, the half-life is the time in which the quantity being followed falls by half. For orientation: IC50 means the concentration that gives 50% inhibition.

Values after ≈ are worked out from the molar mass of the structure shown.

The nature of data set [1]: Stability of compound in rat microsomes assessed as half-life. The data set is classed as ADME, Microsome.
The nature of data set [2]: Inhibition of recombinant mouse GALK1 using ATP as substrate incubated for 1 hr and measured by Kinase-Glo assay. (In general: Kinase-Glo measures the ATP left after a reaction by luminescence.)
A short description of data set [3]: Kinetic aqueous solubility of the compound. Type of data set: physicochemical. The settings on record: buffer; read-out: Kinetic_solubility.

In the case of `COc1ccc(C(=O)O)cc1NC(=O)C1=C(C)NC(Nc2nc3ccc(F)cc3o2)=NC1c1ccccc1Cl` (configuration not stated), the half-life in data set [1] was over 30 min. In addition, the IC50 in data set [2] (read-out: IC50) was 12.2 µM. Further, in data set [3], the solubility kinetic was 53.3 µg/mL (≈ 96.9 µM).

Regarding `CC1=C(C(=O)Nc2cc(N(C)C)ccn2)C(c2ccc(C)cc2Cl)N=C(Nc2nc3ccc(F)cc3o2)N1` (configuration not stated), the half-life in data set [1] stood at 17.6 min. The IC50 in data set [2] (read-out: IC50) worked out at 6.85 µM. In addition, the solubility kinetic in data set [3] came out at 6.2 µg/mL (≈ 11.6 µM).

Turning to `CC1=C(C(=O)NCc2cnn(Cc3ccccc3)c2)C(c2ccc(C)cc2Cl)N=C(Nc2nc3ccc(F)cc3o2)N1` (configuration not stated), in data set [1], the half-life was found to be 2.74 min. Further, in data set [2] (read-out: IC50), the concentration for half-maximal inhibition (IC50) was 5.44 µM. The solubility kinetic in data set [3] is under 1 µg/mL.

As to `CC1=C(C(=O)NCc2cn(C)cn2)[C@H](c2ccccc2Cl)N=C(Nc2nc3ccccc3o2)N1`, in data set [1], the half-life stood at 5.62 min. Also, in data set [2] (read-out: IC50), the half-inhibitory concentration (IC50) stood at 4.32 µM. Also, the solubility kinetic in data set [3] came out at 46.1 µg/mL (≈ 96.9 µM).

Consider `CC1=C(C(=O)Nc2nncs2)C(c2n[nH]cc2Br)N=C(Nc2nc3ccccc3o2)N1` (configuration not stated), for which, in data set [1], the half-life was over 30 min. For the same compound, in data set [2] (read-out: IC50), the 50% inhibitory concentration (IC50) was determined as 19.3 µM. Also, the solubility kinetic in data set [3] was determined as 11.4 µg/mL (≈ 22.8 µM).

For the compound `CC1=C(C(=O)Nc2ccccn2)C(c2ccccc2Cl)N=C(Nc2nc3cccc(N)c3o2)N1` (configuration not stated), in data set [1], the half-life is over 30 min. The IC50 in data set [2] (read-out: IC50) is 19.3 µM. Moreover, the solubility kinetic in data set [3] is under 1 µg/mL.

As for `CC1=C(C(=O)Nc2ccc(F)cc2)C(c2ccccc2Cl)N=C(Nc2nc3ccccc3o2)N1` (configuration not stated), in data set [1], the half-life was over 30 min. Further, the IC50 in data set [2] (read-out: IC50) stood at 12.2 µM. The solubility kinetic in data set [3] is under 1 µg/mL.

For `CC1=C(C(=O)Nc2nncs2)C(c2n[nH]cc2Cl)N=C(Nc2nc3ccccc3o2)N1` (configuration not stated), in data set [1], the half-life was over 30 min. Also, the IC50 in data set [2] (read-out: IC50) was 54.4 µM. Further, the solubility kinetic in data set [3] was 34.6 µg/mL (≈ 75.9 µM).

Consider `CC1=C(C(=O)NCc2cnn(C)c2)C(c2ccccc2Cl)N=C(Nc2nc3ccc(F)cc3o2)N1` (configuration not stated), for which the half-life in data set [1] is 26 min. For the same compound, the concentration for half-maximal inhibition (IC50) in data set [2] (read-out: IC50) worked out at 12.2 µM. Further, in data set [3], the solubility kinetic turned out to be 13.7 µg/mL (≈ 27.7 µM).

For `CC1=C(C(=O)Nc2cc(C(=O)O)ccn2)C(c2ccc(N3CCCCC3)cc2Cl)N=C(Nc2nc3ccc(F)cc3o2)N1` (configuration not stated), the half-life in data set [1] was over 30 min. The concentration for half-maximal inhibition (IC50) in data set [2] (read-out: IC50) was found to be 12.2 µM. Besides, the solubility kinetic in data set [3] turned out to be 1.92 µg/mL (≈ 3.18 µM).

For `CCn1cc(CNC(=O)C2=C(C)NC(Nc3nc4cccc(N)c4o3)=NC2c2ccc(Cl)cc2Cl)cn1` (configuration not stated), in data set [1], the half-life is 14.1 min. Further, the concentration for half-maximal inhibition (IC50) in data set [2] (read-out: IC50) worked out at 8.63 µM. The solubility kinetic in data set [3] worked out at 4.6 µg/mL (≈ 8.53 µM).

As for `CC1=C(C(=O)NCc2c(C)nn(C)c2C)C(c2ccc(C)cc2Cl)N=C(Nc2nc3ccc(F)cc3o2)N1` (configuration not stated), the half-life in data set [1] amounted to 2.66 min. Further, the 50% inhibitory concentration (IC50) in data set [2] (read-out: IC50) was determined as 4.85 µM. The solubility kinetic in data set [3] was under 1 µg/mL.

On to `CC1=C(C(=O)Nc2ccccn2)C(c2ccccc2Cl)N=C(Nc2nc3ccccc3o2)N1` (configuration not stated), for which, in data set [1], the half-life was over 30 min. For the same compound, the IC50 in data set [2] (read-out: IC50) amounted to 10.9 µM. The solubility kinetic in data set [3] was under 1 µg/mL.

`CC1=C(C(=O)NCc2cnn(C)c2)C(c2ccc(C)cc2Cl)N=C(Nc2nc3cnccc3o2)N1` (configuration not stated): the half-life in data set [1] was 5.12 min. For the same compound, the IC50 in data set [2] (read-out: IC50) was 12.2 µM. Besides, the solubility kinetic in data set [3] is over 49 µg/mL.

Take `CC1=C(C(=O)Nc2cc(C(=O)O)ccn2)C(c2cc(C(=O)O)ccc2Cl)N=C(Nc2nc3ccc(F)cc3o2)N1` (configuration not stated): the half-life in data set [1] was over 30 min. Further, the 50% inhibitory concentration (IC50) in data set [2] (read-out: IC50) turned out to be 12.2 µM. The solubility kinetic in data set [3] was over 83 µg/mL.

For `CC1=C(C(=O)Nc2cccc(CN)c2)C(c2ccccc2Cl)N=C(Nc2nc3ccccc3o2)N1` (configuration not stated), the half-life in data set [1] was over 30 min. Further, the IC50 in data set [2] (read-out: IC50) was 6.85 µM. For the same compound, the solubility kinetic in data set [3] turned out to be 37.5 µg/mL (≈ 77 µM).

Take `CC1=C(C(=O)Nc2ccc(CO)nc2)C(c2ccccc2Cl)N=C(Nc2nc3ccccc3o2)N1` (configuration not stated): the half-life in data set [1] is over 30 min. Moreover, in data set [2] (read-out: IC50), the half-maximal inhibitory concentration (IC50) amounted to 7.69 µM. In addition, the solubility kinetic in data set [3] was under 1 µg/mL.

`CC(C)CC1=C(C(=O)Nc2nncs2)C(c2ccccc2Cl)N=C(Nc2nc3ccccc3o2)N1` (configuration not stated): in data set [1], the half-life was over 30 min. Further, the half-inhibitory concentration (IC50) in data set [2] (read-out: IC50) was 17.2 µM. Moreover, the solubility kinetic in data set [3] is under 1 µg/mL.

Regarding `CC1=C(C(=O)Nc2ccc(CO)cn2)C(c2ccccc2Cl)N=C(Nc2nc3ccc(F)cc3o2)N1` (configuration not stated), in data set [1], the half-life is over 30 min. Further, the 50% inhibitory concentration (IC50) in data set [2] (read-out: IC50) is 19.3 µM. Moreover, in data set [3], the solubility kinetic was under 1 µg/mL.

Take `CC1=C(C(=O)NCc2cnn(C)c2)C(c2ccc(Cl)cc2Cl)N=C(Nc2nc3cccc(N)c3o2)N1` (configuration not stated): the half-life in data set [1] was 17.8 min. The half-inhibitory concentration (IC50) in data set [2] (read-out: IC50) came to 6.85 µM. The solubility kinetic in data set [3] was determined as 15.6 µg/mL (≈ 29.7 µM).

With `CC1=C(C(=O)Nc2cc(C(=O)O)ccn2)C(c2ccc(-c3ccc(C(F)(F)F)cc3)cc2Cl)N=C(Nc2nc3ccc(F)cc3o2)N1` (configuration not stated), the half-life in data set [1] was over 30 min. In addition, the concentration for half-maximal inhibition (IC50) in data set [2] (read-out: IC50) amounted to 21.7 µM. In addition, the solubility kinetic in data set [3] turned out to be 8.1 µg/mL (≈ 12.2 µM).

Turning to `COC(=O)c1csc(NC(=O)C2=C(C)NC(Nc3nc4ccccc4o3)=NC2c2ccccc2Cl)n1` (configuration not stated), the half-life in data set [1] was over 30 min. Further, the 50% inhibitory concentration (IC50) in data set [2] (read-out: IC50) amounted to 13.7 µM. Further, in data set [3], the solubility kinetic is under 1 µg/mL.

With `CC1=C(C(=O)NCc2c(C)nn(C)c2C)C(c2ccc(C)cc2Cl)N=C(Nc2nc3cccc(N)c3o2)N1` (configuration not stated), the half-life in data set [1] is 2.37 min. The concentration for half-maximal inhibition (IC50) in data set [2] (read-out: IC50) is 6.85 µM. For the same compound, in data set [3], the solubility kinetic was determined as 12 µg/mL (≈ 22.5 µM).

As to `CCn1nc(C)c(CNC(=O)C2=C(C)NC(Nc3nc4ccc(F)c(N)c4o3)=NC2c2ccc(C)cc2Cl)c1F` (configuration not stated), in data set [1], the half-life was determined as 3.55 min. Further, the IC50 in data set [2] (read-out: IC50) stood at 2.17 µM. Besides, the solubility kinetic in data set [3] came out at 1.53 µg/mL (≈ 2.69 µM).

`COCCNC(=O)C1CC(=O)C2=C(C1)NC(Nc1nc3ccccc3o1)=NC2c1ccccc1Cl` (configuration not stated): the half-life in data set [1] amounted to 10.2 min. In addition, the half-inhibitory concentration (IC50) in data set [2] (read-out: IC50) amounted to 4.85 µM. The solubility kinetic in data set [3] is 4.23 µg/mL (≈ 8.56 µM).

For the compound `CC1=C(C(=O)Nc2nncs2)C2(CCOC2)N=C(Nc2nc3ccccc3o2)N1` (configuration not stated), the half-life in data set [1] is over 30 min. In addition, the IC50 result in data set [2] was “Not Active”. The solubility kinetic in data set [3] was determined as 37.9 µg/mL (≈ 92.1 µM).

Turning to `COC(=O)Cc1ccc(NC(=O)C2=C(C)NC(Nc3nc4ccccc4o3)=NC2c2ccccc2Cl)cc1` (configuration not stated), the half-life in data set [1] worked out at 7.46 min. Further, the concentration for half-maximal inhibition (IC50) in data set [2] (read-out: IC50) was determined as 12.2 µM. Also, the solubility kinetic in data set [3] is under 1 µg/mL.

`CC1=C(C(=O)Nc2cc(C(=O)O)ccc2Cl)C(c2ccccc2Cl)N=C(Nc2nc3ccc(F)cc3o2)N1` (configuration not stated): in data set [1], the half-life is over 30 min. In addition, the concentration for half-maximal inhibition (IC50) in data set [2] (read-out: IC50) stood at 19.3 µM. In addition, in data set [3], the solubility kinetic was 54 µg/mL (≈ 97.4 µM).

Consider `CN(C)C(=O)C1CC(=O)C2=C(C1)NC(Nc1nc3ccccc3o1)=NC2c1ccccc1Cl` (configuration not stated), for which, in data set [1], the half-life was 20.8 min. The IC50 in data set [2] (read-out: IC50) was 4.32 µM. The solubility kinetic in data set [3] is 10.8 µg/mL (≈ 23.4 µM).

As for `CC1=C(C(=O)Nc2nnc(C(F)(F)F)s2)C(c2ccccc2Cl)N=C(Nc2nc3ccccc3o2)N1` (configuration not stated), the half-life in data set [1] was over 30 min. The 50% inhibitory concentration (IC50) in data set [2] (read-out: IC50) worked out at 21.7 µM. Besides, the solubility kinetic in data set [3] was under 1 µg/mL.

As to `CC1=C(C(=O)NCc2cnn(C)c2)C(c2ccc(F)cc2Cl)N=C(Nc2nc3cccc(N)c3o2)N1` (configuration not stated), the half-life in data set [1] is 29.6 min. Further, the half-inhibitory concentration (IC50) in data set [2] (read-out: IC50) amounted to 6.85 µM. Further, the solubility kinetic in data set [3] is 49.6 µg/mL (≈ 97.5 µM).

`COc1ccc(C2N=C(Nc3nc4cccc(N)c4o3)NC(C)=C2C(=O)Nc2cc(C(=O)O)ccn2)c(Cl)c1` (racemic): the half-life in data set [1] was over 30 min. In data set [2] (read-out: IC50), the IC50 was over 1.93 µM. Moreover, in data set [3], the solubility kinetic was over 81 µg/mL.

For the compound `CC1=C(C(=O)Nc2ccc(CN3CCOCC3)cc2)C(c2ccccc2Cl)N=C(Nc2nc3ccccc3o2)N1` (configuration not stated), in data set [1], the half-life turned out to be 22.3 min. The IC50 in data set [2] (read-out: IC50) turned out to be 9.68 µM. In addition, the solubility kinetic in data set [3] is under 1 µg/mL.

For `COC(=O)c1cccc(NC(=O)C2=C(C)NC(Nc3nc4ccccc4o3)=NC2c2ccccc2Cl)n1` (configuration not stated), the half-life in data set [1] is over 30 min. For the same compound, the IC50 in data set [2] (read-out: IC50) turned out to be 12.2 µM. Further, in data set [3], the solubility kinetic was under 1 µg/mL.
